Test systems include 786-0 renal; ACHN renal; EKVX NSCLC; HCT-15 colon; HOP-62 NSCLC; IGROV1 ovarian; K-562 leukemia; NCI/ADR-RES ovarian; SF-539 CNS; SF-268 CNS; TK-10 renal; HL-60(TB) leukemia.
Common to all, as to assay: NCI anticancer screen, dose series, 48 h

“And” between values parts separate entries of the source, which are not always exact repeats. Equal entries are not always repeated.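 Interpolation was linear, between the two tested concentrations surrounding the appropriate level; five concentrations were tested over 48 hours in 96-well plates. The concentration for 50% growth inhibition is given as GI50. At the TGI there is no net growth.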

With `O=S(=O)(O)c1cc(Cl)c(O)c2ncc(Cl)cc12`, the TGI in the assay with 786-0 renal, in the assay with ACHN renal, in the assay with EKVX NSCLC, with HCT-15 colon, in the assay with HOP-62 NSCLC and with IGROV1 ovarian was > 100 µM throughout. For the same compound, the TGI in the assay with K-562 leukemia, in the assay with NCI/ADR-RES ovarian and in the assay on SF-539 CNS was > 100 µM throughout.
Consider `c1ccc(COc2ccc(C[P+](c3ccccc3)(c3ccccc3)c3ccccc3)cc2)cc1`, for which the TGI with 786-0 renal is 3.57 µM; with ACHN renal it was 6.39 µM; with EKVX NSCLC it was 3.04 µM; in the assay on HCT-15 colon it was 13.6 µM; with HOP-62 NSCLC, 3.37 µM; with IGROV1 ovarian, 12.3 µM. Besides, the TGI in the assay on K-562 leukemia is 2.17 µM; in the assay with NCI/ADR-RES ovarian, 49.1 µM; with SF-268 CNS, 14.2 µM; in the assay on SF-539 CNS it was 3.5 µM; in the assay with TK-10 renal, 1.66 µM.
As to `COc1ccc(-n2c(CCCC(=O)O)nc3c2C(=O)c2ccccc2C3=O)cc1`, the TGI in the assay on 786-0 renal, in the assay on ACHN renal, in the assay with EKVX NSCLC, in the assay on HCT-15 colon, in the assay with HL-60(TB) leukemia and in the assay on IGROV1 ovarian was > 100 µM throughout. For the same compound, the TGI in the assay with K-562 leukemia, in the assay with NCI/ADR-RES ovarian, in the assay on SF-268 CNS, in the assay on SF-539 CNS and with TK-10 renal was > 100 µM each time.
For the compound `COc1ccc2c(c1O)-c1c(OC)c(OC)cc3c1[C@H](C2)[N+](C)(C)CC3`, the TGI in the assay on 786-0 renal, with ACHN renal, in the assay on EKVX NSCLC, with HCT-15 colon, in the assay with HL-60(TB) leukemia and in the assay on IGROV1 ovarian was > 100 µM each time. Further, the TGI in the assay with K-562 leukemia, in the assay with NCI/ADR-RES ovarian, with SF-268 CNS, in the assay on SF-539 CNS and with TK-10 renal was > 100 µM each time.
With `CCOC(=O)c1nc2c3c(ncn2n1)Oc1c(c(-c2ccccc2)nn1-c1ccccc1)C3c1ccc(OC)c(OC)c1` (centres undefined), the TGI is > 100 µM in the assay with 786-0 renal; > 100 µM in the assay with ACHN renal; > 100 µM in the assay with EKVX NSCLC; > 100 µM with HCT-15 colon; 48.5 µM in the assay on HOP-62 NSCLC; > 100 µM in the assay with IGROV1 ovarian. Besides, the TGI was > 100 µM with K-562 leukemia; > 100 µM in the assay on NCI/ADR-RES ovarian; 71.1 µM in the assay with SF-268 CNS; 26.8 µM with SF-539 CNS; > 100 µM with TK-10 renal.
In the case of `Cc1cc(-c2ccc(C(=O)C(Cl)(Cl)Cl)[nH]2)on1`, the TGI was > 100 µM with 786-0 renal; > 100 µM with ACHN renal; > 100 µM in the assay with EKVX NSCLC; > 100 µM in the assay on HCT-15 colon; 64.6 µM in the assay on HL-60(TB) leukemia; 24.8 µM in the assay with HOP-62 NSCLC. Moreover, the TGI was > 100 µM with K-562 leukemia; 94.3 µM in the assay on NCI/ADR-RES ovarian; > 100 µM in the assay on SF-268 CNS; 33 µM in the assay with SF-539 CNS; 69.1 µM in the assay on TK-10 renal.
As to `CC(C)(C)C1CCC2c3c([nH]c4ccccc34)C3C(=O)N(c4cc(Br)cc(Br)c4)C(=O)C3C2C1` (centres undefined), the TGI with 786-0 renal is 18.6 µM; in the assay on ACHN renal it was > 100 µM; with EKVX NSCLC, 59.4 µM; with HCT-15 colon, > 100 µM; with HL-60(TB) leukemia, 5.82 µM; in the assay with HOP-62 NSCLC, 69.6 µM. Moreover, the TGI in the assay on IGROV1 ovarian was > 100 µM; with NCI/ADR-RES ovarian, 40.8 µM; in the assay on SF-539 CNS it was 34 µM; in the assay on TK-10 renal, 59.2 µM.
Consider `CCOC(=O)NNC(=O)NCCNC(=O)NNC(=O)OCC`, for which the TGI in the assay on 786-0 renal, with EKVX NSCLC, in the assay with HCT-15 colon, in the assay with HL-60(TB) leukemia, with K-562 leukemia and with NCI/ADR-RES ovarian was > 100 µM throughout. For the same compound, the TGI with SF-268 CNS, with SF-539 CNS and with TK-10 renal was > 100 µM in each case.
With `CSc1n[nH]c(N)c1C(=O)Nc1ccc(Cl)cc1`, the TGI with 786-0 renal, in the assay on EKVX NSCLC, in the assay with HCT-15 colon, in the assay with HL-60(TB) leukemia, with IGROV1 ovarian and in the assay with K-562 leukemia was > 100 µM throughout. Further, the TGI with NCI/ADR-RES ovarian, in the assay with SF-268 CNS, in the assay with SF-539 CNS and in the assay with TK-10 renal was > 100 µM throughout.
As for `CCOC(=O)c1ccc(NC2Oc3cc4c(cc3C(c3cc(OC)c(OC)c(OC)c3)C2C)OCO4)cc1` (centres undefined), the TGI with 786-0 renal is 46.6 µM; in the assay with ACHN renal it was > 63.4 µM; in the assay on EKVX NSCLC it was > 100 µM; in the assay with HCT-15 colon, > 54.6 µM; with HL-60(TB) leukemia, 0.564 µM; in the assay with HOP-62 NSCLC, > 71.4 µM. Besides, the TGI in the assay on IGROV1 ovarian is > 51 µM; in the assay with NCI/ADR-RES ovarian it was 8.27 µM; with SF-268 CNS, > 40.8 µM; with SF-539 CNS, 0.878 µM; in the assay on TK-10 renal, 99.5 µM.
For the compound `C=C1CC2CC[C@@]34C[C@@H]5O[C@@H]6C(O[C@H]7CC[C@H](CC(=O)OC8[C@@H](C)C9OC%10C[C@]%11(C[C@@H]%12O[C@@]%13(C[C@@H](C)[C@@H]%12O%11)C[C@H](C)[C@@H]%11OC%12CC(C(O)CO)OC%12C[C@@H]%11O%13)OC%10CC9O[C@H]8C[C@H]8O[C@@H](CC[C@@H]1O2)C[C@@H](C)C8=C)O[C@@H]7[C@@H]6O3)C5O4` (some centres undefined), the GI50 is < 0.000148 µM in the assay with EKVX NSCLC; 0.000233 µM in the assay on HCT-15 colon; < 0.000148 µM with HL-60(TB) leukemia; 0.000174 µM with HOP-62 NSCLC; < 0.000148 µM in the assay with IGROV1 ovarian; < 0.000148 µM with K-562 leukemia. Moreover, the GI50 in the assay with SF-268 CNS and in the assay with SF-539 CNS was < 0.000148 µM in each case. Moreover, the TGI in the assay with EKVX NSCLC was > 1.48 µM; in the assay with IGROV1 ovarian, > 1.48 µM; with K-562 leukemia, > 1.48 µM; in the assay with NCI/ADR-RES ovarian, 0.0304 µM; in the assay with SF-268 CNS it was > 1.48 µM; in the assay on SF-539 CNS, 0.00562 µM and 0.00215 µM.
Consider `NCCC1(N)CCNCC1`, for which the TGI in the assay on 786-0 renal, in the assay with ACHN renal, in the assay on EKVX NSCLC, in the assay with HCT-15 colon, in the assay with HL-60(TB) leukemia and in the assay on IGROV1 ovarian was > 100 µM each time. Further, the TGI with K-562 leukemia, in the assay on NCI/ADR-RES ovarian, with SF-268 CNS, with SF-539 CNS and in the assay with TK-10 renal was > 100 µM each time.

The values are drawn from PubChem BioAssay (NCI).
